Assay [1] deals with Prothrombin (Homo sapiens) (UniProt P00734). In words: Inhibition of factor 2a (unknown origin) at IC90 preincubated for 1 min followed by chromogenic substrate addition and measured for 2 mins in presence of AT-III. To be noted: time 3.0 min.
For assay [2], the target named is Coagulation factor X (Homo sapiens) (UniProt P00742). As to the kind of experiment: Inhibition of factor 10a (unknown origin) at IC50 preincubated for 1 min followed by chromogenic substrate addition and measured for 2 mins. Conditions: time 3.0 min.
Coagulation factor X (Homo sapiens), sequence (P00742 41-179 limits assumed): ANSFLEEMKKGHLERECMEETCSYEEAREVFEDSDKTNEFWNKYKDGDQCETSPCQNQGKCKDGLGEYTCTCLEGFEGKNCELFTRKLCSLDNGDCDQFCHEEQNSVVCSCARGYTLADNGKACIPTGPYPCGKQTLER
Coagulation factor X (Homo sapiens), sequence (P00742 235-488 limits assumed): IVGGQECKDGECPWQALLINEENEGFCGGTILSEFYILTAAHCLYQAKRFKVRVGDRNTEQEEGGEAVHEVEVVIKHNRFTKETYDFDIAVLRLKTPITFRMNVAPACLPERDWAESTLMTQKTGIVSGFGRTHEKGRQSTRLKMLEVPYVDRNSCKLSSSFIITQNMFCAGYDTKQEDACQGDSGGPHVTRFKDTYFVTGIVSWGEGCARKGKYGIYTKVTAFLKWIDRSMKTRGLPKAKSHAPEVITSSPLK
Assay [3] shares this target. As to the kind of experiment: Inhibition of factor 10a (unknown origin) at IC90 preincubated for 1 min followed by chromogenic substrate addition and measured for 2 mins in presence of AT-III relative to control. Conditions: time 3.0 min.
In assay [4] the target is T1, Coagulation factor IX/VIII (Homo sapiens) (UniProt P00740+P00451). In words: Inhibition of human citrated plasma iXase (factor 8a-factor 9a complex) assessed as activity potency of oligosaccharides multiplied by the percentage of oligosaccharides in dHG-5 preincubated for 2 mins followed by factor 10 addition and measured after 1 min by FXa chromogenic substrate SXa-11 based assay relative to dHG-5. It counts as protein-complex assay. Conditions: time 3.0 min.

For assay [5], the target named is T2, Coagulation factor VII (Homo sapiens) (UniProt P08709).
T2 sequence (whole entry): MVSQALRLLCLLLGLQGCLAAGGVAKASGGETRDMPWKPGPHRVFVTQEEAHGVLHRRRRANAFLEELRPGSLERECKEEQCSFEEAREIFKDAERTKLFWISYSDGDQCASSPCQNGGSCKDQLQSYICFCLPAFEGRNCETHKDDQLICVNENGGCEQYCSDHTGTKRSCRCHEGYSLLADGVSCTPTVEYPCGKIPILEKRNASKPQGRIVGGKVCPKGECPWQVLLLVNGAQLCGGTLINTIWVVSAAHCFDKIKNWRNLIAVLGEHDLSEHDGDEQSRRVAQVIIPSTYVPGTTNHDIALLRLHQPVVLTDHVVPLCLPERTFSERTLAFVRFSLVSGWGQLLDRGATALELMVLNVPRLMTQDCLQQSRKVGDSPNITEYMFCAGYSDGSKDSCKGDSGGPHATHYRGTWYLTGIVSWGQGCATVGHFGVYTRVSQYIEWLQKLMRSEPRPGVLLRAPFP
As to the kind of experiment: Inhibition of factor 7a (unknown origin) at IC50 using pefachrome factor VIIa as substrate preincubated for 1 min followed by chromogenic substrate addition and measured for 2 mins. To be noted: time 3.0 min.

Assay [6] has as its target T3, Coagulation factor IX (Homo sapiens, UniProt P00740). In words: Inhibition of factor 9a (unknown origin) binding to immobilized biotinylated oHG-11 by biolayer interferometry relative to dHG-5.
The target in assay [7] is Prothrombin (Homo sapiens) (UniProt P00734). In words: Inhibition of factor 2a (unknown origin) at IC50 preincubated for 1 min followed by chromogenic substrate addition and measured for 2 mins in presence of AT-III. Conditions: time 3.0 min.
Assay [8] addresses T3, Coagulation factor IX. As to the kind of experiment: Inhibition of factor 9a (unknown origin) binding to immobilized biotinylated oHG-11 assessed as activity potency of oligosaccharides multiplied by the percentage of oligosaccharides in dHG-5 by biolayer interferometry relative to dHG-5. (Biolayer interferometry detects binding as a change in optical thickness at a sensor tip.)

Assay [9] addresses T1, Coagulation factor IX/VIII (Homo sapiens). In words: Inhibition of human citrated plasma iXase (factor 8a-factor 9a complex) preincubated for 2 mins followed by factor 10 addition and measured after 1 min by FXa chromogenic substrate SXa-11 based assay relative to dHG-5. It counts as protein-complex assay. To be noted: time 3.0 min.
For assay [10], the target named is T2, Coagulation factor VII (Homo sapiens). As to the kind of experiment: Inhibition of factor 7a (unknown origin) at IC50 using pefachrome factor VIIa as substrate preincubated for 1 min followed by chromogenic substrate addition and measured for 2 mins in presence of AT-III. To be noted: time 3.0 min.
For assay [11], the target named is Coagulation factor XI (Homo sapiens) (UniProt P03951). As to the kind of experiment: Inhibition of factor 11a (unknown origin) at IC50 using S-2366 as substrate preincubated for 1 min followed by chromogenic substrate addition and measured for 2 mins in presence of AT-III. To be noted: time 3.0 min.
Coagulation factor XI (Homo sapiens), sequence (P03951 19-387 limits assumed): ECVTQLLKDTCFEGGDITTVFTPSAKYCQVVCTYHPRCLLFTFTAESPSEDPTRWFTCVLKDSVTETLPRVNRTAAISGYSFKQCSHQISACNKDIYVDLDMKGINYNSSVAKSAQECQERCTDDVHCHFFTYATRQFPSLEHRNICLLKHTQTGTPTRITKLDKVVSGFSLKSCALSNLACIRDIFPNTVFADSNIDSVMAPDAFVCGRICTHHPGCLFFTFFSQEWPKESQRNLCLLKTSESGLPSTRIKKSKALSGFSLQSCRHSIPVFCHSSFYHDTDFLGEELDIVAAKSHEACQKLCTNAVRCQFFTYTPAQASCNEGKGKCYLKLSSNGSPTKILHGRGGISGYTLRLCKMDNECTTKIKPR
Coagulation factor XI (Homo sapiens), sequence (P03951 388-625 limits assumed): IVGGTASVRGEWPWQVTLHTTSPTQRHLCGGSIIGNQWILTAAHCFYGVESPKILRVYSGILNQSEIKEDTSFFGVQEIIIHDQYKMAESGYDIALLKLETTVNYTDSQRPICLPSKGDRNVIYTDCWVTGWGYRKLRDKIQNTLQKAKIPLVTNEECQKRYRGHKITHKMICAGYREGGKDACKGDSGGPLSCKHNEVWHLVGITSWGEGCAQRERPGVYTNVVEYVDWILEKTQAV
For assay [12] the target is unchanged. As to the kind of experiment: Inhibition of factor 11a (unknown origin) at IC50 using S-2366 as substrate preincubated for 1 min followed by chromogenic substrate addition and measured for 2 mins. Conditions: time 3.0 min.
The target is the same in assay [13]. In words: Inhibition of factor 11a (unknown origin) at IC90 using S-2366 as substrate preincubated for 1 min followed by chromogenic substrate addition and measured for 2 mins in presence of AT-III. To be noted: time 3.0 min.
Assay [14] has as its system Plasma. As to the kind of experiment: Anticoagulation activity in human plasma assessed as drug level causing 20 times doubling of APTT by measuring activity potency of oligosaccharides multiplied by the percentage of oligosaccharides in dHG-5 preincubated for 2 mins followed by APTT reagent and measured after 3 mins by coagulometric method relative to dHG-5. It counts as functional. To be noted: time 5 min.

The target in assay [15] is Coagulation factor X (Homo sapiens) (UniProt P00742). As to the kind of experiment: Inhibition of factor 10a (unknown origin) at IC50 preincubated for 1 min followed by chromogenic substrate addition and measured for 2 mins in presence of AT-III. Conditions: time 3.0 min.
Assay [16] deals with Rattus norvegicus. As to the kind of experiment: Antithrombotic activity in thromboplastin and stasis-induced Sprague-Dawley rat deep venous thrombosis model assessed as reduction in venous thrombosis by measuring activity potency of oligosaccharides multiplied by the percentage of oligosaccharides in dHG-5 at 1.84 mg/kg, sc administered 1 hr prior to thromboplastin addition for 20 secs followed by establishment of stasis for 20 mins relative to dHG-5. It counts as functional. Conditions: time 80.33 min, 1.339 h.

Assay [17] relates to Plasma. As to the kind of experiment: Anticoagulation activity in human plasma assessed as drug level causing 20 times doubling of APTT preincubated for 2 mins followed by APTT reagent and measured after 3 mins by coagulometric method relative to dHG-5. Type of assay: functional. Conditions: time 5 min.
For assay [18], the system named is Rattus norvegicus. In words: Antithrombotic activity in thromboplastin and stasis-induced Sprague-Dawley rat deep venous thrombosis model assessed as reduction in venous thrombosis at 1.84 mg/kg, sc administered 1 hr prior to thromboplastin addition for 20 secs followed by establishment of stasis for 20 mins relative to dHG-5. To be noted: time 80.33 min, 1.339 h. It counts as functional.

The target in assay [19] is Prothrombin (Homo sapiens) (UniProt P00734). In words: Inhibition of factor 2a (unknown origin) at IC50 preincubated for 1 min followed by chromogenic substrate addition and measured for 2 mins. To be noted: time 3.0 min.
The target in assay [20] is T4, Coagulation factor XII (Homo sapiens) (UniProt P00748).
T4 sequence (whole entry): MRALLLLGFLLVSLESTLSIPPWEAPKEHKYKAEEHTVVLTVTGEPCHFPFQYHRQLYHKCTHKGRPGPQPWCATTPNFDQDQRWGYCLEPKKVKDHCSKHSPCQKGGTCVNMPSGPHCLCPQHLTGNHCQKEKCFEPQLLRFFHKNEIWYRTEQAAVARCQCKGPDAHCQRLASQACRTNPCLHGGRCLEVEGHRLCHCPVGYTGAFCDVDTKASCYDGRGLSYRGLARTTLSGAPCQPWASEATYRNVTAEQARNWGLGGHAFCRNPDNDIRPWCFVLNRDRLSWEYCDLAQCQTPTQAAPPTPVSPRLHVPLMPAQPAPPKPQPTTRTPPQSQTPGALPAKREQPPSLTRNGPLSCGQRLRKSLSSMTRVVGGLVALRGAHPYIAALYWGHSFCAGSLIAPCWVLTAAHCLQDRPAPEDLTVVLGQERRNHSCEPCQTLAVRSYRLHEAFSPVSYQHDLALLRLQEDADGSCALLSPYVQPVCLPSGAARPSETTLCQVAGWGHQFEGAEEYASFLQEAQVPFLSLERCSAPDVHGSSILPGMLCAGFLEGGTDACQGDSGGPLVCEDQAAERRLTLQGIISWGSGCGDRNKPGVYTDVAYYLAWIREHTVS
As to the kind of experiment: Inhibition of factor 12a (unknown origin) at IC50 using kallikrein chromogenic substrate preincubated for 1 min followed by chromogenic substrate addition and measured for 2 mins. To be noted: time 3.0 min.

Assay [21] has as its target T4, Coagulation factor XII (Homo sapiens). In words: Inhibition of factor 12a (unknown origin) at IC50 using kallikrein chromogenic substrate preincubated for 1 min followed by chromogenic substrate addition and measured for 2 mins in presence of AT-III. Conditions: time 3.0 min.

Structures are written as SMILES. The source made the active and inactive calls. No cut-off for these calls is given here.

T3 sequence (P00740 47-191 limits assumed): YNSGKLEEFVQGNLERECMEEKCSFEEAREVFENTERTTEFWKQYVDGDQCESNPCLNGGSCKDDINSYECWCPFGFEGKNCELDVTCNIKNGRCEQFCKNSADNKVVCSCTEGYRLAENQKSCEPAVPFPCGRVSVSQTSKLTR
T3 sequence (P00740 227-461 limits assumed): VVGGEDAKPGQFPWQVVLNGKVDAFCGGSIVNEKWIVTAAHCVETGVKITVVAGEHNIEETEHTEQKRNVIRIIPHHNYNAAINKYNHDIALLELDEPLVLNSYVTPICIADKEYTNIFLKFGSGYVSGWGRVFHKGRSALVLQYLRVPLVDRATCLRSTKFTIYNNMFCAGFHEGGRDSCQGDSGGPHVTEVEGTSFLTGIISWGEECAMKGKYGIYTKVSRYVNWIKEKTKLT

Turning to `CC(=O)N[C@H]1[C@H](O[C@@H]([C@H](O[C@@H]2O[C@@H](C)[C@@H](OS(=O)(=O)[O-])[C@@H](OS(=O)(=O)O)[C@@H]2O)[C@@H](O)CO)[C@H](O)C(=O)[O-])O[C@H](COS(=O)(=O)[O-])[C@H](OS(=O)(=O)[O-])[C@@H]1O[C@@H]1O[C@H](C(=O)[O-])[C@@H](O[C@@H]2O[C@H](COS(=O)(=O)[O-])[C@H](OS(=O)(=O)[O-])[C@H](O[C@@H]3O[C@H](C(=O)[O-])[C@@H](O[C@@H]4O[C@H](COS(=O)(=O)[O-])[C@H](OS(=O)(=O)[O-])[C@H](O[C@@H]5O[C@H](C(=O)[O-])[C@@H](O[C@@H]6O[C@H](COS(=O)(=O)[O-])[C@H](OS(=O)(=O)[O-])[C@H](O[C@@H]7O[C@H](C(=O)[O-])[C@@H](O[C@@H]8O[C@H](COS(=O)(=O)[O-])[C@H](OS(=O)(=O)[O-])[C@H](O[C@@H]9O[C@H](C(=O)[O-])[C@@H](O[C@@H]%10O[C@H](COS(=O)(=O)[O-])[C@H](OS(=O)(=O)[O-])[C@H](O[C@@H]%11OC(C(=O)[O-])=C[C@H](O[C@@H]%12O[C@@H](C)[C@@H](OS(=O)(=O)[O-])[C@@H](OS(=O)(=O)O)[C@@H]%12O)[C@H]%11O)[C@H]%10NC(C)=O)[C@H](O[C@@H]%10O[C@@H](C)[C@@H](OS(=O)(=O)[O-])[C@@H](OS(=O)(=O)O)[C@@H]%10O)[C@H]9O)[C@H]8NC(C)=O)[C@H](O[C@@H]8O[C@@H](C)[C@@H](OS(=O)(=O)[O-])[C@@H](OS(=O)(=O)O)[C@@H]8O)[C@H]7O)[C@H]6NC(C)=O)[C@H](O[C@@H]6O[C@@H](C)[C@@H](OS(=O)(=O)[O-])[C@@H](OS(=O)(=O)O)[C@@H]6O)[C@H]5O)[C@H]4NC(C)=O)[C@H](O[C@@H]4O[C@@H](C)[C@@H](OS(=O)(=O)[O-])[C@@H](OS(=O)(=O)O)[C@@H]4O)[C@H]3O)[C@H]2NC(C)=O)[C@H](O[C@@H]2O[C@@H](C)[C@@H](OS(=O)(=O)[O-])[C@@H](OS(=O)(=O)O)[C@@H]2O)[C@H]1O.[Na+].[Na+].[Na+].[Na+].[Na+].[Na+].[Na+].[Na+].[Na+].[Na+].[Na+].[Na+].[Na+].[Na+].[Na+].[Na+].[Na+].[Na+].[Na+].[Na+].[Na+].[Na+].[Na+].[Na+].[Na+].[Na+]`, the inhibition entry in assay [1] and in assay [13] was “Active” in each case. The inhibition result in [2], in assay [3], in [7], in [10], in [11] and in assay [12] was “inactive” each time. In addition, the inhibition result in [15], in assay [19], in [20] and in [21] was “inactive” in each case. Further, the Ratio turned out to be 24.4 U in [4]; 116 U in assay [6]; 13.1 U in assay [8]; 217 U in assay [9]; 22.82 U in [14]; 23.93 U in assay [16]. Moreover, the Ratio in assay [17] stood at 203.41 U; in [18], 213.7 U. Moreover, in assay [5], the “inhibition (active/not active)” value was “inactive”.

These data come from ChEMBL document CHEMBL4765450, “The components and activities analysis of a novel anticoagulant candidate dHG-5” (Eur J Med Chem, 2020).
